Assay in all cases: Secondary dose-response HTS, Cell Titer Glo; call rule not given here
Format in all cases: cell-based, human
(ATP-based viability assays read luminescence as a measure of living cells.)

For experiment [1], the system named is CHRF288-11. The settings on record: secondary high-throughput screen, CHRF288-11; for EC50: read-out: average effective concentration, CHRF288-11.
In experiment [2] the test system is MV4-11. Particulars: secondary high-throughput screen, MV4-11; for EC50: read-out: average effective concentration, MV4-11.
Experiment [3] relates to ML2. The settings on record: secondary high-throughput screen, ML-2; for EC50: read-out: average effective concentration, ML-2.
In experiment [4] the test system is CMS. Particulars: for EC50: read-out: average effective concentration, CMS.
Experiment [5] has as its system U937. The settings on record: secondary high-throughput screen, U937; for EC50: read-out: average effective concentration, U937.
Experiment [6] has as its system MOLM-13. Particulars: secondary high-throughput screen, MOLM-13; for EC50: read-out: average effective concentration, MOLM-13.
Experiment [7] has as its system M07e. The settings on record: secondary high-throughput screen; for EC50: read-out: average effective concentration, M07e.
For experiment [8], the system named is CMK. Particulars: CMK; for EC50: read-out: average effective concentration, CMK.
[9] abbreviates: secondary high-throughput screen, CMS.
Where [10] appears, read: secondary high-throughput screen.
Setting [11] is: Homo sapiens, HTS, secondary high-throughput screen, CMS.
Where [12] appears, read: Homo sapiens, secondary high-throughput screen.

Like-named read-outs stand apart in the source and are kept apart here.

In the case of `CCOC(=O)c1cc2ccccc2nc1C` [MC-1626], the “average effective concentration, CHRF288-11” value in experiment [1] was “Inactive”. The “average effective concentration, MV4-11” value in experiment [2] is “Inactive”. Also, the “average effective concentration, ML-2” value in experiment [3] is “Inactive”. For the same compound, in experiment [4] (setting [9]), the “average effective concentration, CMS” value is “Inactive”. Moreover, the “average effective concentration, U937” value in experiment [5] was “Inactive”. For the same compound, the “average effective concentration, MOLM-13” value in experiment [6] was “Inactive”. Moreover, the “average effective concentration, M07e” value in experiment [7] (M07e) is recorded as “Inactive”. Also, the “average effective concentration, CMK” value in experiment [8] (setting [10]) is given as “Inactive”.
As to `CN(C)c1ccc2nc3ccc(=[N+](C)C)cc-3sc2c1` [METHYLENE BLUE], the EC50 in experiment [1] (Homo sapiens, HTS) was 6200 nM; in experiment [2] (Homo sapiens) it was 1300 nM; in experiment [3] (Homo sapiens), 5900 nM; in experiment [4] (setting [11]) it was > 10000 nM; in experiment [5] (Homo sapiens, U-937), 10000 nM; in experiment [6] (Homo sapiens), 2000 nM. Moreover, the EC50 in experiment [7] (Homo sapiens, M-07e, M07e) is > 10000 nM; in experiment [8] (setting [12]), 3400 nM.
Regarding IC-87114, the “average effective concentration, CHRF288-11” value in experiment [1] is “Inactive”. Also, in experiment [2], the “average effective concentration, MV4-11” value is reported as “Inactive”. In experiment [3], the “average effective concentration, ML-2” value is reported as “Inactive”. Also, in experiment [4] (setting [9]), the “average effective concentration, CMS” value is recorded as “Inactive”. Moreover, in experiment [5], the “average effective concentration, U937” value is “Inactive”. The “average effective concentration, MOLM-13” value in experiment [6] is on record as “Inactive”. Besides, the “average effective concentration, M07e” value in experiment [7] (M07e) is “Inactive”. For the same compound, in experiment [8] (setting [10]), the “average effective concentration, CMK” value is “Inactive”.
As to `Cc1cc(C2CCCCC2)n(O)c(=O)c1` [CICLOPIROX], the EC50 stood at 7900 nM in experiment [1] (Homo sapiens, HTS); 5200 nM in experiment [2] (Homo sapiens); 2400 nM in experiment [3] (Homo sapiens); 3900 nM in experiment [4] (setting [11]); 7500 nM in experiment [5] (Homo sapiens, U-937); 3400 nM in experiment [6] (Homo sapiens). Further, the EC50 in experiment [7] (Homo sapiens, M-07e, M07e) came to 7700 nM; in experiment [8] (setting [12]) it was 4700 nM.
Consider `Cn1c(/C=C/C(=O)NO)ccc1/C=C/C(=O)c1cccc(F)c1` [MC1568], for which the EC50 was 4900 nM in experiment [1], 4300 nM in experiment [3], 3400 nM in experiment [5] and 460 nM in experiment [7] (M07e). In experiment [2], the “average effective concentration, MV4-11” value is “Inactive”. Besides, the “average effective concentration, CMS” value in experiment [4] (setting [9]) is “Inactive”. Further, the “average effective concentration, MOLM-13” value in experiment [6] is reported as “Inactive”. Moreover, in experiment [8] (setting [10]), the “average effective concentration, CMK” value is recorded as “Inactive”.
In the case of MST312, the EC50 was 2000 nM in experiment [1]; 3700 nM in experiment [3]; 2900 nM in experiment [4] (setting [9]); 2800 nM in experiment [5]; 1500 nM in experiment [6]; 5200 nM in experiment [7] (M07e). Further, the “average effective concentration, MV4-11” value in experiment [2] was “Inactive”. For the same compound, the “average effective concentration, CMK” value in experiment [8] (setting [10]) is “Inactive”.
With PU-H71, the EC50 in experiment [1] came out at 170 nM; in experiment [2], 23 nM; in experiment [3] it was 82 nM; in experiment [4] (setting [9]) it was 180 nM; in experiment [6], 19 nM; in experiment [8] (setting [10]), 24 nM. For the same compound, in experiment [5], the “average effective concentration, U937” value is listed as “Inactive”. The “average effective concentration, M07e” value in experiment [7] (M07e) is “Inactive”.
Take `COc1ncc(-c2ccc3nccc(-c4ccnnc4)c3c2)cc1NS(=O)(=O)c1ccc(F)cc1F` [GSK-2126458]: the EC50 was 1300 nM in experiment [1] (Homo sapiens, HTS); 1 nM in experiment [2] (Homo sapiens); 1 nM in experiment [3] (Homo sapiens); 40 nM in experiment [4] (Homo sapiens, HTS); 1 nM in experiment [5] (Homo sapiens, U-937); 940 nM in experiment [6] (Homo sapiens). In addition, the EC50 in experiment [7] (Homo sapiens, M-07e, M07e) was determined as 5600 nM; in experiment [8] (Homo sapiens), 1 nM.
As for `CC1CCCCCC(=O)c2c(O)cc(O)cc2CC(=O)O1` (single isomer, unassigned; (-)) [(-)-CURVULARIN], the EC50 in experiment [1] is 4700 nM; in experiment [4] (setting [9]), 320 nM; in experiment [5], 820 nM; in experiment [8] (setting [10]), 1500 nM. In experiment [2], the “average effective concentration, MV4-11” value is “Inactive”. Moreover, the “average effective concentration, MOLM-13” value in experiment [6] is on record as “Inactive”. In addition, the “average effective concentration, M07e” value in experiment [7] ([…]) is “Inactive”.

(Values after paper PMC6522510 (Nature Communications, 2019).)
